Experimental data reported in patent publication US20050043378A1, “LTA4H modulators” (priority 2003, published 2005).
Read-outs that look alike come from different tables or passages of the source.

Experiments:
[1] = target: T1, recombinant human LTA4 hydrolase (rhLTA4H) (Homo sapiens, UniProt P09960); assay: Recombinant human LTA4 hydrolase assay for LTA4 hydrolase inhibitor activity; type: biochemical; settings: LTA4 substrate, LTB4 by immunoassay, average of one to three determinations;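 further: enzyme expressed in Sf-9 insect cells, compound preincubated 10 min with enzyme, 10 min reaction at room temperature, uninhibited reaction as positive control, enzyme-free blank as negative control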
T1 construct: made in house; host or cells: Spodoptera frugiperda (Sf-9) cells, baculovirus (pFastBac1)
T1 sequence (P09960 1-611): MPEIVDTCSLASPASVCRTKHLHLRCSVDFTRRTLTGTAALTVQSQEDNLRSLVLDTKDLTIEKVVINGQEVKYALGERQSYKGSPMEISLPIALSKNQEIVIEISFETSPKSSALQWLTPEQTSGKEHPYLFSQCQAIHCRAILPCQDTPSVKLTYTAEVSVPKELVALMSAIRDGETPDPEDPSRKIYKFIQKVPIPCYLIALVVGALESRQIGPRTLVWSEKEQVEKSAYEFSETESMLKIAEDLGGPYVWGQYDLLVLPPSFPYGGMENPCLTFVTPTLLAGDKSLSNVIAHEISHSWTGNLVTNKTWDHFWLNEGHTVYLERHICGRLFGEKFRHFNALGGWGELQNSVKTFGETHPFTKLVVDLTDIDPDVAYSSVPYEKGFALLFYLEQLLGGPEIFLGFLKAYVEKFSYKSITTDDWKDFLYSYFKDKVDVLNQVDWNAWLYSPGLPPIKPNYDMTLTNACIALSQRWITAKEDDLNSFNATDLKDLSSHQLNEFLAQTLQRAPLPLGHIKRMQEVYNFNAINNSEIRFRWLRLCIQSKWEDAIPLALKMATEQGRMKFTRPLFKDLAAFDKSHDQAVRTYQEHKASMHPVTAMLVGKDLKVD

[2] = tested on: LTB4 production by calcium ionophore-stimulated murine blood; assay: LTB4 production by calcium ionophore-stimulated murine blood for LTA4H inhibitor activity; type: cell-based, CD-1 mice
[3] = tested on: neutrophil influx (myeloperoxidase, MPO); assay: Murine arachidonic acid-induced inflammation model: neutrophil influx (myeloperoxidase activity in ear biopsies); type: in vivo, female Balb/c mice; settings: Mus musculus, 30 mg/kg oral gavage 60 min before topical arachidonic acid to ear, ear biopsies after 3 h, vs animals without inhibitor, read-out: % Inh. MPO
[4] = tested on: ex vivo stimulated LTB4 production in blood; assay: Murine arachidonic acid-induced inflammation model: ex vivo stimulated LTB4 production; set-up: species or system female Balb/c mice; settings: Mus musculus; 30 mg/kg oral gavage; blood taken 3 h after arachidonic acid, ex vivo A23187 stimulation; vs animals without inhibitor; read-out: % Inh. LTB4
[5] = diluted CD-1 mouse whole blood, A23187 stimulation, LTB4 by immunoassay, read-out: IC50

Row | Compound | IC50 [1] [nM] | IC50 [2, 5] [nM] | inhibition in vivo at 30 mg/kg [3] [%] | inhibition at 30 mg/kg [4] [%] | IC50 ([2]; Mus musculus) [nM]
1 | O=C1C[C@@H](O)CN1C1CCN(CCc2ccc(Oc3nc4ccccc4s3)cc2)CC1 [Example 334, (R)-1-(1-{2-[4-(Benzothiazol-2-yloxy)-phenyl]-ethyl}-piperidin-4-yl)-4-hydroxy-pyrrolidin-2-one] | 100 | 453 | – | – | –
2 | OCCN(CCc1ccc(Oc2nc3ccccc3s2)cc1)CC1CC1 [Example 380, 2-({2-[4-(Benzothiazol-2-yloxy)-phenyl]-ethyl}-cyclopropylmethyl-amino)-ethanol] | 6 | 17 | – | – | –
3 | OC1CCN(CCc2ccc(Oc3nc4ccccc4[nH]3)cc2)CC1 [Example 127, 1-{2-[4-(1H-Benzoimidazol-2-yloxy)-phenyl]-ethyl}-piperidin-4-ol] | – | 376 | – | – | –
4 | CCOC(=O)NC1CCN(Cc2ccc(Oc3nc4ccccc4s3)cc2)CC1 [Example 462, {1-[4-(Benzothiazol-2-yloxy)-benzyl]-piperidin-4-yl}-carbamic acid ethyl ester] | 27 | 144 | – | – | –
5 | CN(C)CCOc1ccc(Oc2nc3ccccc3o2)cc1 [Example 46, {2-[4-(Benzooxazol-2-yloxy)-phenoxy]-ethyl}-dimethyl-amine] | 17 | 29 | – | – | –
6 | OCCC1CCN(Cc2ccc(Oc3nc4ccccc4s3)cc2)CC1 [Example 296, 2-{1-[4-(Benzothiazol-2-yloxy)-benzyl]-piperidin-4-yl}-ethanol] | 33 | 133 | – | – | –
7 | O=C1C[C@@H](O)CN1C1CCN(CCOc2ccc(Oc3nc4ccccc4s3)cc2)CC1 [Example 261, (R) 1-(1-{2-[4-(Benzothiazol-2-yloxy)-phenoxy]-ethyl}-piperidin-4-yl)-4-hydroxy-pyrrolidin-2-one] | 33 | 81 | – | – | –
8 | OC1CCN(CCOc2ccc(Oc3nc4ccccc4o3)cc2)CC1 [Example 14, 1-{2-[4-(Benzooxazol-2-yloxy)-phenoxy]-ethyl}-piperidin-4-ol] | – | – | 56 | 81 | 89
9 | OCCC1CCCCN1Cc1ccc(Oc2nc3ccccc3s2)cc1 (stereo not drawn) [Example 288, 2-{1-[4-(Benzothiazol-2-yloxy)-benzyl]-piperidin-2-yl}-ethanol] | 4 | 57 | – | – | –
10 | O=C(CO)N1CCN(CCc2ccc(Oc3nc4ccccc4s3)cc2)CC1 [Example 325, 1-(4-{2-[4-(Benzothiazol-2-yloxy)-phenyl]-ethyl}-piperazin-1-yl)-2-hydroxy-ethanone] | 12 | – | 67 | 76 | –
11 | O=C1C[C@H](O)CN1C1CCN(CCOc2ccc(Oc3nc4ccccc4s3)cc2)CC1 [Example 207, (S)-1-(1-{2-[4-(Benzothiazol-2-yloxy)-phenoxy]-ethyl}-piperidin-4-yl)-4-hydroxy-pyrrolidin-2-one] | 16 | 81 | – | – | –
12 | OC1CCN(CCc2ccc(Oc3nc4ccccc4o3)cc2)CC1 [Example 94, 1-{2-[4-(Benzooxazol-2-yloxy)-phenyl]-ethyl}-piperidin-4-ol] | 1 | 72 | – | – | –
13 | O=C(O)C1CCCCN1CCc1ccc(Oc2nc3ccccc3s2)cc1 (stereo not drawn) [Example 156, 1-{2-[4-(Benzothiazol-2-yloxy)-phenyl]-ethyl}-piperidine-2-carboxylic acid] | 7 | 2000 | – | – | –
14 | OCC1CCCN(Cc2ccc(Oc3nc4ccccc4s3)cc2)C1 (stereo not drawn) [Example 302, {1-[4-(Benzothiazol-2-yloxy)-benzyl]-piperidin-3-yl}-methanol] | 60 | 212 | – | – | –
15 | OCCCN(CCc1ccc(Oc2nc3ccccc3s2)cc1)C1CC1 [Example 198, 3-({2-[4-(Benzothiazol-2-yloxy)-phenyl]-ethyl}-cyclopropyl-amino)-propan-1-ol] | – | 39 | – | – | –
16 | O=C(O)C1CCN(Cc2ccc(Oc3nc4ccccc4s3)cc2)CC1 [Example 250, 1-[4-(Benzothiazol-2-yloxy)-benzyl]-piperidine-4-carboxylic acid] | – | – | 94 | 80 | –
17 | CS(=O)(=O)NC1CCN(Cc2ccc(Oc3nc4ccccc4s3)cc2)CC1 [Example 361, N-{1-[4-(Benzothiazol-2-yloxy)-benzyl]-piperidin-4-yl}-methanesulfonamide] | 8 | – | 90 | 86 | –
18 | OCC1CCCCN1Cc1ccc(Oc2nc3ccccc3s2)cc1 (stereo not drawn) [Example 298, {1-[4-(Benzothiazol-2-yloxy)-benzyl]-piperidin-2-yl}-methanol] | 15 | 69 | – | – | –

Row | Compound | IC50 [1] [nM] | IC50 [2, 5] [nM] | inhibition in vivo at 30 mg/kg [3] [%] | inhibition at 30 mg/kg [4] [%] | IC50 ([2]; Mus musculus) [nM]
19 | OCC1CCCN(CCc2ccc(Oc3nc4ccccc4s3)cc2)C1 (stereo not drawn) [Example 161, (1-{2-[4-(Benzothiazol-2-yloxy)-phenyl]-ethyl}-piperidin-3-yl)-methanol] | 1 | 100 | – | – | –
20 | CCN(CCCN1CCCC1=O)Cc1ccc(Oc2nc3ccccc3s2)cc1 [Example 437, 1-(3-{[4-(Benzothiazol-2-yloxy)-benzyl]-ethyl-amino}-propyl)-pyrrolidin-2-one] | 21 | 105 | – | – | –
21 | CCN(CC)CCOc1ccc(Oc2nc3ccccc3o2)cc1 [Example 484, {2-[4-(Benzooxazol-2-yloxy)-phenoxy]-ethyl}-diethyl-amine] | 19 | 11 | – | – | –
22 | NC(=O)C1CCN(Cc2ccc(Oc3nc4ccccc4s3)cc2)CC1 [Example 274, 1-[4-(Benzothiazol-2-yloxy)-benzyl]-piperidine-4-carboxylic acid amide] | – | – | 87 | 93 | –
23 | OCC1CCN(CCOc2ccc(Oc3nc4ccccc4[nH]3)cc2)CC1 [Example 133, (1-{2-[4-(1H-Benzoimidazol-2-yloxy)-phenoxy]-ethyl}-piperidin-4-yl)-methanol] | 111 | 290 | – | – | –
24 | c1ccc2oc(Oc3ccc(OCCN4CCCCC4)cc3)nc2c1 [Example 11, 2-[4-(2-Piperidin-1-yl-ethoxy)-phenoxy]-benzooxazole] | – | 44 | 95 | – | –
25 | OCC1CCN(CCOc2ccc(Oc3nc4ccccc4o3)cc2)CC1 [Example 13, (1-{2-[4-(Benzooxazol-2-yloxy)-phenoxy]ethyl}-piperidin-4-yl)-methanol] | – | 41 | – | – | –
26 | O=C(O)CCN(CCc1ccc(Oc2nc3ccccc3s2)cc1)Cc1ccccc1 [Example 192, 3-({2-[4-(Benzothiazol-2-yloxy)-phenyl]-ethyl}-benzyl-amino)-propionic acid] | 3 | – | – | – | –
27 | CCCN(CCc1ccc(Oc2nc3ccccc3o2)cc1)CC1CC1 [Example 92, {2-[4-(Benzooxazol-2-yloxy)-phenyl]-ethyl}-cyclopropylmethyl-propyl-amine] | 1 | – | – | – | –
28 | OC1CCN(CCCc2ccc(Oc3nc4ccccc4o3)cc2)CC1 [Example 36, 1-{3-[4-(Benzooxazol-2-yloxy)-phenyl]-propyl}-piperidin-4-ol] | 14 | – | – | – | –
29 | OC1(c2ccc(Cl)cc2)CCN(CCOc2ccc(Oc3nc4ccccc4o3)cc2)CC1 [Example 59, 1-{2-[4-(Benzooxazol-2-yloxy)-phenoxy]-ethyl}-4-(4-chloro-phenyl)-piperidin-4-ol] | 5 | – | – | – | –
30 | O=C(Cc1ccccc1)NC1CCN(CCc2ccc(Oc3nc4ccccc4s3)cc2)CC1 [Example 110, N-(1-{2-[4-(Benzothiazol-2-yloxy)-phenyl]-ethyl}-piperidin-4-yl)-2-phenyl-acetamide] | 40 | – | – | – | –
31 | CC(=O)N(C)C1CCN(Cc2ccc(Oc3nc4ccccc4s3)cc2)CC1 [Example 471, N-{1-[4-(Benzothiazol-2-yloxy)-benzyl]-piperidin-4-yl}-N-methyl-acetamide] | 19 | – | 89 | 90 | –
32 | O=S(=O)(c1ccc(Cl)cc1)N(C1CC1)C1CCN(CCOc2ccc(Oc3nc4ccccc4s3)cc2)CC1 [Example 168, N-(1-{2-[4-(Benzothiazol-2-yloxy)-phenoxy]-ethyl}-piperidin-4-yl)-4-chloro-N-cyclopropyl-benzene sulfonamide] | 27 | – | – | – | –
33 | NC(=O)C1CCN(CCOc2ccc(Cc3nc4ccccc4s3)cc2)CC1 [Example 147, 1-[2-(4-Benzothiazol-2-ylmethyl-phenoxy)-ethyl]-piperidine-4-carboxylic acid amide] | 33 | – | – | – | –
34 | O=C(O)CN1CCN(CCOc2ccc(Oc3nc4ccccc4s3)cc2)CC1 [Example 163, (4-{2-[4-(Benzothiazol-2-yloxy)-phenoxy]-ethyl}-piperazin-1-yl)-acetic acid] | 9 | – | – | – | –
35 | OC1CCN(CCOc2ccc(Oc3nc4ccccc4[nH]3)cc2)CC1 [Example 134, 1-{2-[4-(1H-Benzoimidazol-2-yloxy)-phenoxy]-ethyl}-piperidin-4-ol] | 110 | 436 | – | – | –
